Blank lines part the entries; values can stand above or below the molecule they belong to.
Columns and labels:
VEGFR3 [1] = target: T1, VEGFR3 (Homo sapiens, UniProt P35916); test: Inhibition of VEGF-C induced VEGFR-3 phosphorylation in PAE cells stably expressing human VEGFR-3; type: cell-based; design: expressed in transfected cells; host or cells: porcine aortic endothelial (PAE) cells; details: PAE cells expressing human VEGFR-3, 100 ng/ml VEGF-C, Western blot (FIG. 1)
Experimental: For this assay, porcine aortic endothelial (PAE) cells stably expressing human VEGFR-3 were grown to confluency on 10 cm dishes. The cells were serum starved overnight and the media replaced with fresh serum-free media. […] This was followed by the addition of VEGF-C to a final concentration of 100 ng/ml and the cells incubated for 10 min at 37° C., after which they were washed with ice-cold PBS and then lysed. Cell lysates containing protease inhibitors were subjected to immunoprecipitation with an antibody specific for VEGFR-3 and the immunoprecipitates separated by SDS-PAGE. Proteins were transferred to a nitrocellulose membrane, and then probed first with a phospho-tyrosine antibody and then a VEGFR-3 antibody.

[2] = tested on: VEGFR1 mediated VEGF signaling; test: VEGF stimulation of Erk1/2 in HMVEC-d cells; type: cell-based, human; details: 5 μM, 10 ng/ml VEGF (FIG. 2)
Experimental: (§1) HMVEC-d cells (Cambrex) were cultured at 37 C in 5% CO2 in appropriate serum containing medium (Cambrex) on fibronectin coated 12-well plates (BD Biocoat, Becton Dickinson) for 4 days. Cells were then starved for 16 hours in the same medium as before, but lacking serum and containing SITE+3 (Invitrogen) instead. Cells were then preincubated with DMSO at 0.2% (the solvent) or 5 uM Compound 2 for 60 minutes and then either 10 ng/ml VEGF or 100 ng/ml VEGF-C (R&D systems) was added to the cells. Before, or 10 and 30 minutes after stimulation, the medium was removed, cells were rinsed with ice-cold PBS containing 0.1 mM sodiumorthovanadate and lysed in M-PER buffer (PIERCE) containing 0.1% SDS, and 1× phosphatase and protease inhibitors (HALT, PIERCE). Cells were scraped off the plates and incubated in lysis buffer for 30 minutes on ice and then centrifuged at 4° C. for 10 min at 16000×g. Lysates were quantified using the BCA reagent according to the manufacturer's instructions (PIERCE), and […] of total protein was loaded on SDS-polyacrylamide gels (NUPAGE, Invitrogen). Electrophoresis and blotting onto PVDF membranes was all performed using reagents from the NUPAGE system, according to the manufacturer's instructions. […]

[3] = tested on: VEGFR3 dependent VEGF-C stimulation of Erk1/2; test: Inhibition of Erk activation induced by VEGF-C in HMVEC-d cells; type: cell-based, human; details: 5 μM, 100 ng/ml VEGF-C (FIG. 2)
Experimental: as §1

Xenopus tadpoles = test: VEGFR3 in vivo Xenopus assay (lymphangiogenesis, LEC migration); details: for % Relative Area 2-3: LECs in area 2-3 relative to vehicle control; for % Relative Max Migration: furthest LEC migration from PCV relative to vehicle control; for % embryos with reduced migration: stages 35-36 tadpoles
Experimental: Xenopus tadpoles were used as a model (Ny et al Nature Medicine 11: 998-1004 (2005)) to analyze the effects of Compound 2 on lymphangiogenesis. The compound was administered daily in a dose dependent manner, with vehicle controls, to the medium of the Xenopus tadpoles starting at stage 26-28, i.e., before the formation of both blood and lymphatic vessels. The effects of the compound was monitored by “live analysis”, i.e. live embryos were examined 4 days later for evidence of lymph-vascular defects by trained observers. As an additional means of confirming the results, in a limited number of experiments, tadpoles were fixed at stage 35-36 and in situ hybridizations for Prox1 were performed to assess migration of lymphatic endothelial cells (LECs) from the posterior cardinal vein (PCV) to their dorsal endpoint, this reflecting an essential step in lymphangiogenesis. Under normal circumstances, LECs arise from the region of the PCV, accumulate there, and during the study period, they migrate dorsally to defined “areas” (Area 1 to Area 2 and Area 3), where they then further migrate rostrally and caudally to form the lymphatic vasculature in the tail and trunk. Defects in migration of the LECs from the PCV was quantified by determining the maximal migration of the cells, and by counting the number of cells in these different regions in the tail.

VEGFR3 [4] = target: T1, VEGFR3; test: VEGFR3 in vitro kinase assay; type: biochemical; details: 10 μM ATP
Experimental: The VEGFR3 kinase reaction was performed at 30° C. for 10 minutes in a 96-well microtiterplate. The 25 μl reaction volume contained 8 mM MOPS pH 7, 200 μM EDTA, 10 mM MgAc, 10 μM unlabeled ATP, […] AT33P, 500 μM JAK3-tide (Ac-GGEEEEYFELVKKKK-NH2), 25 ng VEGFR3 and 2% compound in 100% DMSO.
The reaction was stopped by adding 5 μl of a 3% phosphoric acid solution. 10 μl of the reaction mixture was then spotted onto a Filtermat P30 filter (Wallac) and washed 3 times for 5 min. in 0.75% phosphoric acid and 1 time for 2 min. in methanol prior to transferring to a sealable plastic bag containing 4 ml of scintillation liquid and reading in a scintillation counter.

T1 sequence (P35916 25-1363): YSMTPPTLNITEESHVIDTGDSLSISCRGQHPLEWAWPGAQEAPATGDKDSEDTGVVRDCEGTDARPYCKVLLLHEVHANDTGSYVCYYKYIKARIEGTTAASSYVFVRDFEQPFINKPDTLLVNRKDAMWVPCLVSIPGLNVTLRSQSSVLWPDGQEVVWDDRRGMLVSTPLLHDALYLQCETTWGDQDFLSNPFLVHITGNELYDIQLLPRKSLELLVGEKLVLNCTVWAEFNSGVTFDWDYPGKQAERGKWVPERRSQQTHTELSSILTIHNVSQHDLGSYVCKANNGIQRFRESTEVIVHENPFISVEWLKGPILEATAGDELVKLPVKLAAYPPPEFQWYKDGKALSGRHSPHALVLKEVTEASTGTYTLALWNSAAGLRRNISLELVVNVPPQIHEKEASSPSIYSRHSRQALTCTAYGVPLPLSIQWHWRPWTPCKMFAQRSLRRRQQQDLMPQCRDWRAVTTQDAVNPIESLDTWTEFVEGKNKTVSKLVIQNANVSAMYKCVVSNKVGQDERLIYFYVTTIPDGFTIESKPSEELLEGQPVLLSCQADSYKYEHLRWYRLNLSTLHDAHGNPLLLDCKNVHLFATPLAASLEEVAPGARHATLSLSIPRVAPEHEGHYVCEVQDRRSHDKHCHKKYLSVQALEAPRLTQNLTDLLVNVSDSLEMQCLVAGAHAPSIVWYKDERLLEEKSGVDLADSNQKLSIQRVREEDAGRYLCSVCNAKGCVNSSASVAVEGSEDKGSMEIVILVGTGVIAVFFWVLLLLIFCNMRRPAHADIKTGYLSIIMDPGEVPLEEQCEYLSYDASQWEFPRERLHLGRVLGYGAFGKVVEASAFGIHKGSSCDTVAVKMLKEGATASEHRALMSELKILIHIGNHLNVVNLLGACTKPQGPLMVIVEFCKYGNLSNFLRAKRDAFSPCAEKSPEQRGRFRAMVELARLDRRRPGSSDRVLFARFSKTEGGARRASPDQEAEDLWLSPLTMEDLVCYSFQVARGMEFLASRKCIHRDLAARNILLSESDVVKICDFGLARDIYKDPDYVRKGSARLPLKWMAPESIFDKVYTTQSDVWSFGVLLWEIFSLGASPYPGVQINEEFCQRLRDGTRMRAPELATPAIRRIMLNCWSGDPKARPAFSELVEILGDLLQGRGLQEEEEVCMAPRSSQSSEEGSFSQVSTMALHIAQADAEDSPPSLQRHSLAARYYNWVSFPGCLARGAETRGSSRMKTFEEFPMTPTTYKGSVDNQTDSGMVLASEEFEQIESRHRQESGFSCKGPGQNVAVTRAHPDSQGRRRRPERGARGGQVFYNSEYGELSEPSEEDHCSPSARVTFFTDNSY

- melting point: 255.5 to 260.2 °C
Compound: COc1cc2ncnc3c2cc1OCCCCCCOc1c(Cl)cccc1N3 [4,6-ethanediylidene-19H-pyrimido[4,5-b][6,13,1]benzodioxaazacyclo-pentadecine, 15-chloro-8,9,10,11,12,13-hexahydro-20-methoxy-]

- VEGF-C induced VEGFR-3 phosphorylation (VEGFR3 [1]): dose dependent reduction
- tadpoles with hemorrhages (Xenopus tadpoles; concentrations >50 uM, live screening): 30%
- IC50 (VEGFR3 [4]): 18.2 nM
Compound: COc1cc2ncnc3c2cc1OCCCCCN(C)Cc1ccc(Br)cc1N3 [Compound 2, 4,6-ethanediylidenepyrimido[4,5-b][6,1,12]benzoxadiazacyclo-pentadecine, 17-bromo-8,9,10,11,12,13,14,19-octahydro-20-methoxy-13-methyl-]
- VEGF stimulation of Erk1/2 [2]: did not interfere
- phosphorylation of Erk1/2 by VEGF-C [3]: prevented
- % Relative Area 2-3 (Xenopus tadpoles; 0.3125 μM): 37 ± 20%
- % Relative Max Migration (Xenopus tadpoles; 0.3125 μM): 73 ± 22%
- % embryos with reduced migration (Xenopus tadpoles; 0.3125 μM): 57%
- % Relative Area 2-3 (Xenopus tadpoles; 1.25 μM): 20 ± 8%
- % Relative Max Migration (Xenopus tadpoles; 1.25 μM): 47 ± 5%
- % embryos with reduced migration (Xenopus tadpoles; 1.25 μM): 63%
- % Relative Area 2-3 (Xenopus tadpoles; 5 μM): 123 ± 32%
- % Relative Max Migration (Xenopus tadpoles; 5 μM): 121 ± 3%
- % embryos with reduced migration (Xenopus tadpoles; 5 μM): 40%
- % Relative Area 2-3 (Xenopus tadpoles; 20 μM): 19 ± 8%
- % Relative Max Migration (Xenopus tadpoles; 20 μM): 35 ± 1%
- tadpoles that developed edema (Xenopus tadpoles; 20 uM, live screening): 10%
- % embryos with reduced migration (Xenopus tadpoles; 20 μM): 60%
- % Relative Area 2-3 (Xenopus tadpoles; 80 μM): 56 ± 15%
- % Relative Max Migration (Xenopus tadpoles; 80 μM): 67 ± 21%
- % embryos with reduced migration (Xenopus tadpoles; 80 μM): 80%
- effects in Xenopus tadpole model (Xenopus tadpoles; in vivo): phenocopy the effects of VEGF-C knockout
- Lymphatic Endothelial Cell (LEC) migration in tadpoles (Xenopus tadpoles; stage 35-36 tadpoles): dose dependently inhibits

Source: patent publication US20080219975A1, “VEGFR3 INHIBITORS” (priority 2006, published 2008)
